# Assay results reported in patent US20080009418A1, “Selective Inhibitors” (Alchemia LTD., priority 2004, published 2008).
# Key:
# [1] = target: T1, Human δ-opioid (DOP) (Homo sapiens, UniProt P41143); assay: Radioligand binding, human δ-opioid (DOP) membranes, FlashPlate, [3H]-Bremazocine; conditions: compound at 10 μM, [3H]-Bremazocine
# T1 construct: purchased Perkin Elmer Biosignal
# In short: (§1)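 Cloned human receptor membranes were coated onto FlashPlate wells and incubated with radioligand and compound (added from a 0.5 mM DMSO daughter plate) for 1 hour at room temperature in the dark. Scintillation counting gave percent inhibition, with DMSO defining total and reference ligand defining non-specific binding.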
# [2] = target: T2, Human κ-Opioid (KOP) (Homo sapiens, UniProt P41145); assay: Radioligand binding, human κ-opioid (KOP) membranes, filtration, [3H]-Diprenorphine; conditions: compound at 10 μM, [3H]-Diprenorphine
# T2 construct: purchased Perkin Elmer Biosignal
# In short: (§2)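 Filtration binding on cloned human receptor membranes (1 Unit/well), [125I]-Substance P for NK1 and [3H]-Diprenorphine for KOP, 1 h at room temperature. Filters PEI-presoaked, washed with cold 50 mM Tris-HCl pH 7.4, counted by scintillation; percent inhibition calculated, reference ligand defining non-specific binding.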
# [3] = target: T3, Human Melanocortin (MC3) (Homo sapiens, UniProt P41968); assay: Radioligand binding, human melanocortin MC3 membranes, FlashPlate, [125I]-NDP-αMSH; conditions: compound at 10 μM, [125I]-NDP-αMSH, 10 µM
# T3 construct: purchased Perkin Elmer Biosignal
# In short: as §1
# [4] = target: T4, Human Melanocortin (MC4) (Homo sapiens, UniProt P32245); assay: Radioligand binding, human melanocortin MC4 membranes, FlashPlate, [125I]-NDP-αMSH; conditions: compound at 10 μM, [125I]-NDP-αMSH
# T4 construct: purchased Perkin Elmer Biosignal
# In short: as §1
# [5] = target: T5, Human melanocortin (MC5) (Homo sapiens, UniProt P33032); assay: Radioligand binding, human melanocortin MC5 membranes, FlashPlate, [125I]-NDP-αMSH; conditions: compound at 10 μM, [125I]-NDP-αMSH
# T5 construct: purchased Perkin Elmer Biosignal
# In short: as §1
# [6] = target: T6, Human melanin-concentrating hormone (MCH1) (Homo sapiens, UniProt Q99705); assay: Radioligand binding, human melanin-concentrating hormone MCH1 membranes, FlashPlate, [125I]-S36057; conditions: compound at 10 μM
# T6 construct: purchased Perkin Elmer Biosignal
# In short: as §1
# [7] = target: T7, Human μ-opioid (MOP) (Homo sapiens, UniProt P35372); assay: Radioligand binding, human μ-opioid (MOP) membranes, FlashPlate, [3H]-Naloxone; conditions: compound at 10 μM, [3H]-Naloxone
# T7 construct: purchased Perkin Elmer Biosignal
# In short: as §1
# [8] = target: T8, Human neurokinin (NK1) (Homo sapiens, UniProt P25103); assay: Radioligand binding, human neurokinin NK1 membranes, filtration, [125I]-Substance P; conditions: compound at 10 μM, [125I]-Substance P
# T8 construct: purchased Perkin Elmer Biosignal
# In short: as §2
# [9] = target: T9, Human neuropeptide Y (NPY-Y1) (Homo sapiens, UniProt P25929); assay: Radioligand binding, human neuropeptide Y NPY-Y1 membranes, FlashPlate, [125I]-PYY; conditions: compound at 10 μM, [125I]-PYY
# T9 construct: purchased Perkin Elmer Biosignal
# T9 sequence (P25929 1-384): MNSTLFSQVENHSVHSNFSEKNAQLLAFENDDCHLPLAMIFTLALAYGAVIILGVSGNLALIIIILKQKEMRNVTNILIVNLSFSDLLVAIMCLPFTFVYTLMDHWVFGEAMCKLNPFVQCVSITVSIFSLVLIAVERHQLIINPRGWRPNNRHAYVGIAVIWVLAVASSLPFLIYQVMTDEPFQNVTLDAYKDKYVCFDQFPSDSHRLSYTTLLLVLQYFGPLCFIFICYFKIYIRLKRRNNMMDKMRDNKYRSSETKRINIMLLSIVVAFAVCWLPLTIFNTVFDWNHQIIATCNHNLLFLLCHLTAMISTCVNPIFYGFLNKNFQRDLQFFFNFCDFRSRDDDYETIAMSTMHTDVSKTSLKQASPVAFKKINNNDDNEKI
# In short: as §1
# [10] = target: T10, Human opioid (ORL1) (Homo sapiens, UniProt P41146); assay: Radioligand binding, human opioid ORL1 membranes, FlashPlate, [125I]-Nociceptin; conditions: compound at 10 μM, [125I]-Nociceptin
# T10 construct: purchased Perkin Elmer Biosignal
# In short: as §1
# [11] = target: T11, Mouse urotensin (mUR2) (Mus musculus, UniProt Q8VIH9); assay: Radioligand binding, mouse urotensin mUR2 membranes, FlashPlate, [125I]-Urotensin II; conditions: compound at 10 μM, [125I]-Urotensin II
# T11 construct: purchased Perkin Elmer Biosignal
# T11 sequence (Q8VIH9 1-385): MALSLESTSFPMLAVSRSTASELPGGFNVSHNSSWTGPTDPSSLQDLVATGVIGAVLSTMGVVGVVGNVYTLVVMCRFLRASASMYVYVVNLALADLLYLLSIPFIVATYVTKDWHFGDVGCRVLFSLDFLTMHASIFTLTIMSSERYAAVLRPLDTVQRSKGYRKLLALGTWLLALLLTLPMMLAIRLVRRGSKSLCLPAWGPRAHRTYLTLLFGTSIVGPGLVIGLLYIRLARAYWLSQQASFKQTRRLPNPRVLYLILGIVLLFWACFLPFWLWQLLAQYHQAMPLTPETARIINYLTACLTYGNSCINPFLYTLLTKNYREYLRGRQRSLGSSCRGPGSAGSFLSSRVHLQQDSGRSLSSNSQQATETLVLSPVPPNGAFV
# In short: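 Cloned mouse urotensin (mUR2) receptor membranes from Perkin Elmer Biosignal were immobilized in FlashPlate microplates using a proprietary coating. Each well got 19.5 μl buffer, then 0.5 μl of DMSO, reference ligand, or compound. Adding 5 μl of [125I]-Urotensin II, diluted to 5× final concentration in binding buffer, started binding. Plates were sealed with TopSeal-A and incubated 1 hour at room temperature in the dark. Wells were counted for 30 seconds each on a TopCount after a 60-second delay, and percentage inhibition was calculated.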
# T2 sequence (P41145 whole entry): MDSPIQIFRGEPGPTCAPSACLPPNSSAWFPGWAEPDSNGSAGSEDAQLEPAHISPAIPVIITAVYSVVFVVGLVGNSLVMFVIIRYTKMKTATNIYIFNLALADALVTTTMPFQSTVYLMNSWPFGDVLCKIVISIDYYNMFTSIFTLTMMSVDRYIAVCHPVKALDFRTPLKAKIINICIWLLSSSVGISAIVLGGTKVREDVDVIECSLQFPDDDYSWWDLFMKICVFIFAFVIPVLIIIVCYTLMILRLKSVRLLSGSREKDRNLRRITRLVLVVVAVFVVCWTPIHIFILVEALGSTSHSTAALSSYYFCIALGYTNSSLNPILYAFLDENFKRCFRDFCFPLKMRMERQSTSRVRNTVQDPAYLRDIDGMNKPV
# T3 sequence (P41968 whole entry): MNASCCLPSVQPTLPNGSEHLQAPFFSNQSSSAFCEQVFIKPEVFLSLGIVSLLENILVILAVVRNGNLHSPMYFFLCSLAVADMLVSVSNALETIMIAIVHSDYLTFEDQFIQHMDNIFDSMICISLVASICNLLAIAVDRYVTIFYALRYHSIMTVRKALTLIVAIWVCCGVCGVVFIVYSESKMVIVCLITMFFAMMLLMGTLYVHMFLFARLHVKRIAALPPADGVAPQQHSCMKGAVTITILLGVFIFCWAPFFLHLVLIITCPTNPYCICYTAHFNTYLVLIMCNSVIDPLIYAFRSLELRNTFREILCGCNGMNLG
# T10 sequence (P41146 whole entry): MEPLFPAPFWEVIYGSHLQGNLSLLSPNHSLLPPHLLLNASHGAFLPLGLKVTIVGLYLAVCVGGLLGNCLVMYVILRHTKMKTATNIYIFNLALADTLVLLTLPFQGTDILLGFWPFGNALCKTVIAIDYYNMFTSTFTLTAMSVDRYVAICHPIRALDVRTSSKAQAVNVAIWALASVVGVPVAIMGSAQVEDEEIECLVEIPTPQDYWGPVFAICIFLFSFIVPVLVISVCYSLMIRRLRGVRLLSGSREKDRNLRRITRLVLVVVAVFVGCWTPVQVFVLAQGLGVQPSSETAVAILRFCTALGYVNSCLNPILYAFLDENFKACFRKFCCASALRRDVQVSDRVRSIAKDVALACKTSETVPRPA
# T1 sequence (P41143 whole entry): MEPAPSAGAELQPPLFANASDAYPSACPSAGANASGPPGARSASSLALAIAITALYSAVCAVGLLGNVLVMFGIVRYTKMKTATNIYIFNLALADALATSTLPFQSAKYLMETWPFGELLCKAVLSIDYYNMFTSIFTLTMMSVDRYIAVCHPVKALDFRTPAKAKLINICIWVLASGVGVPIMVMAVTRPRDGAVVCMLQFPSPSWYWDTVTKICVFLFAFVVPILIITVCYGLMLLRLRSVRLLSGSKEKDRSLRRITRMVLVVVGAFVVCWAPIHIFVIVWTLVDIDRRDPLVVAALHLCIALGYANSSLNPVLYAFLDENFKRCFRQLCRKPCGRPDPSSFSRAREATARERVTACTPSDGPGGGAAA
# T6 sequence (Q99705 whole entry): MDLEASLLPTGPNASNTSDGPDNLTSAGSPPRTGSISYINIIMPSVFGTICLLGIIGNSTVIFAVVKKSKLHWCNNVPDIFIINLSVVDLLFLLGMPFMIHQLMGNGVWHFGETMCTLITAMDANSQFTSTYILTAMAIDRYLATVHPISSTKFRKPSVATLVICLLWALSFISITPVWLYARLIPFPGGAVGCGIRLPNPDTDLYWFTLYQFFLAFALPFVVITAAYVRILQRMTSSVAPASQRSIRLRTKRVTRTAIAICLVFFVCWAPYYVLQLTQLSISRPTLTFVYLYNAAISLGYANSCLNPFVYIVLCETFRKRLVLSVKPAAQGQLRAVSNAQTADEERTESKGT
# T8 sequence (P25103 whole entry): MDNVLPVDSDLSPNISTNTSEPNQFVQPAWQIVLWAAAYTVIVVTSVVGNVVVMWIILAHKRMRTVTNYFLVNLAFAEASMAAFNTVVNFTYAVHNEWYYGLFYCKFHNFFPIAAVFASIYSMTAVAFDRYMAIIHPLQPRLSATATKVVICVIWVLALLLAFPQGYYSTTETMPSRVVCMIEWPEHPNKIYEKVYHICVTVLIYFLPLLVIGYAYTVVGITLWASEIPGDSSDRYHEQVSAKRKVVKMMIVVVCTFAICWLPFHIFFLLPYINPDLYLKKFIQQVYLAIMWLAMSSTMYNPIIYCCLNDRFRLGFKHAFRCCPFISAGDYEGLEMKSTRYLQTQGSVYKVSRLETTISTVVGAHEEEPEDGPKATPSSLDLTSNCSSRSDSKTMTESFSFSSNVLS
# T7 sequence (P35372 whole entry): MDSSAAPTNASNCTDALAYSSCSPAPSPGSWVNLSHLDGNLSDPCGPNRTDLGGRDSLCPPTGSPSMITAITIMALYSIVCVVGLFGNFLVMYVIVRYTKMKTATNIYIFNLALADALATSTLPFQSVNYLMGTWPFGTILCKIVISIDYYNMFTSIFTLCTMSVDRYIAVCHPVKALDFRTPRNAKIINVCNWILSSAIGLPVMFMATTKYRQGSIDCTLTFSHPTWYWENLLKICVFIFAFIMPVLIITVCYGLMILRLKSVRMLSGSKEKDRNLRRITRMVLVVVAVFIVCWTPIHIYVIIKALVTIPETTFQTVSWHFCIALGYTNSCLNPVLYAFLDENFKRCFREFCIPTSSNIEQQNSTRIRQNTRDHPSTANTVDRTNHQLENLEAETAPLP
# T5 sequence (P33032 whole entry): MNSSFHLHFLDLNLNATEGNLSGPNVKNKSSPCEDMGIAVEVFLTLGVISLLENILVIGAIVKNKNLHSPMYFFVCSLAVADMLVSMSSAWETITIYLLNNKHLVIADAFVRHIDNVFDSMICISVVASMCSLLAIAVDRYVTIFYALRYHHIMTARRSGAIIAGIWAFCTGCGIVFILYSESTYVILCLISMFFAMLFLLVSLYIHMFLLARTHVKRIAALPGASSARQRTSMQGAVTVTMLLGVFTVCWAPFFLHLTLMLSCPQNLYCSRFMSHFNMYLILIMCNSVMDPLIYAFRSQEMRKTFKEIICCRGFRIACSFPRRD
# T4 sequence (P32245 whole entry): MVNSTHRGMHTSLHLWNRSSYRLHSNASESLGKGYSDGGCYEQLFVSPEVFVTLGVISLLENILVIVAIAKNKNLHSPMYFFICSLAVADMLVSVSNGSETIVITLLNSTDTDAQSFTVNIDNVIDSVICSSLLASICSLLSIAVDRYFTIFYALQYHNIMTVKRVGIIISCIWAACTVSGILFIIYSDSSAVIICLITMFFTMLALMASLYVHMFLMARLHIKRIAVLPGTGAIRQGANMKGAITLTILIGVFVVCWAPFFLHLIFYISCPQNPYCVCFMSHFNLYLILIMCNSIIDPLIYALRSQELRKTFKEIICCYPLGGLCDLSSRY
smiles,measurement,setting,value
NCCCC(=O)NC1C(OCc2ccc3ccccc3c2)OC(COCc2ccccc2)C(O)C1OCc1ccc2ccccc2c1 (stereo not shown) [compound 462],A1: inhibition of radioligand binding,[1]; human DOP membranes,− (“−” indicates less than 50% inhibition at 10 μM)
same,A2: inhibition of radioligand binding,[2]; human KOP membranes,− (“−” indicates less than 50% inhibition at 10 μM)
same,A3: inhibition of radioligand binding,[3]; human MC3 membranes,− (“−” indicates less than 50% inhibition at 10 μM)
same,A4: inhibition of radioligand binding,"[4]; human MC4 membranes, 10 µM",− (“−” indicates less than 50% inhibition at 10 μM)
same,A5: inhibition of radioligand binding,[5]; human MC5 membranes,+ (“+” indicates greater than 50% inhibition at 10 μM)
same,A6: inhibition of radioligand binding,"[6]; [125I]-S36057, human MCH1 membranes",− (“−” indicates less than 50% inhibition at 10 μM)
same,A7: inhibition of radioligand binding,[7]; human MOP membranes,− (“−” indicates less than 50% inhibition at 10 μM)
same,A8: inhibition of radioligand binding,[8]; human NK1 membranes,+ (“+” indicates greater than 50% inhibition at 10 μM)
same,A9: inhibition of radioligand binding,[9]; human NPY-Y1 membranes,− (“−” indicates less than 50% inhibition at 10 μM)
same,A10: inhibition of radioligand binding,"[10]; human ORL1 membranes, 10 µM",+ (“+” indicates greater than 50% inhibition at 10 μM)
same,A11: inhibition of radioligand binding,[11]; mouse mUR2 membranes,− (“−” indicates less than 50% inhibition at 10 μM)
"NCCCC(=O)NC1C(OCc2ccc(Cl)cc2)OC(COCc2ccc3ccccc3c2)C(O)C1OCc1ccccc1 (single isomer, unassigned) [compound 501]","A1: inhibition of radioligand binding, human δ-opioid (DOP)",[1],− (“−” indicates less than 50% inhibition at 10 μM)
same,"A2: inhibition of radioligand binding, human κ-opioid (KOP)",[2],− (“−” indicates less than 50% inhibition at 10 μM)
same,"A3: inhibition of radioligand binding, human melanocortin (MC3)",[3],+ (“+” indicates greater than 50% inhibition at 10 μM)
same,"A4: inhibition of radioligand binding, human melanocortin (MC4)",[4],+ (“+” indicates greater than 50% inhibition at 10 μM)
same,"A5: inhibition of radioligand binding, human melanocortin (MC5)",[5],+ (“+” indicates greater than 50% inhibition at 10 μM)
same,"A6: inhibition of radioligand binding, human melanin-concentrating hormone (MCH1)","[6]; [125I]-S36057, 10 µM",− (“−” indicates less than 50% inhibition at 10 μM)
same,"A7: inhibition of radioligand binding, human μ-opioid (MOP)",[7]; 10 µM,− (“−” indicates less than 50% inhibition at 10 μM)
same,"A8: inhibition of radioligand binding, human neurokinin (NK1)",[8],+ (“+” indicates greater than 50% inhibition at 10 μM)
same,"A9: inhibition of radioligand binding, human neuropeptide Y (NPY-Y1)",[9],− (“−” indicates less than 50% inhibition at 10 μM)
same,"A10: inhibition of radioligand binding, human opioid (ORL1)",[10],+ (“+” indicates greater than 50% inhibition at 10 μM)
same,"A11: inhibition of radioligand binding, mouse urotensin (mUR2)",[11],− (“−” indicates less than 50% inhibition at 10 μM)
